# Measured values: publication PMC7914897, “Cytotoxic Potential of a-Azepano- and 3-Amino-3,4-SeCo-Triterpenoids” (International Journal of Molecular Sciences, 2021)
# Like-named read-outs stand apart in the source and are kept apart here.
# Columns and labels:
# SK-MEL-28 (Melanoma) = assay: NCI-60 screen (SRB, 48 h); settings: Homo sapiens
# [1] = system: NCI-H23 (NSC lung cancer); assay: NCI-60 screen (SRB, 48 h); settings: Homo sapiens
# LOX IMVI (Melanoma) = assay: NCI-60 screen (SRB, 48 h); format: cell-based; settings: Homo sapiens
# [2] = system: MDA-MB-31/ATCC (Breast cancer); assay: NCI-60 screen (SRB, 48 h); settings: Homo sapiens
# HS 578T (Breast cancer) = assay: NCI-60 screen (SRB, 48 h); settings: Homo sapiens
# IGROV1 (Ovarian cancer) = assay: NCI-60 screen (SRB, 48 h); settings: Homo sapiens
# UO-31 (Renal cancer) = assay: NCI-60 screen (SRB, 48 h); settings: Homo sapiens
# [3] = system: A549/ATCC (NSC lung cancer); assay: NCI-60 screen (SRB, 48 h); settings: Homo sapiens
# [4] = system: NCI/ADR-RES (Ovarian cancer); assay: NCI-60 screen (SRB, 48 h); settings: Homo sapiens
# SN12C (Renal cancer) = assay: NCI-60 screen (SRB, 48 h); settings: Homo sapiens
# DU-145 (Prostate cancer) = assay: NCI-60 screen (SRB, 48 h); settings: Homo sapiens
# Prostate cancer subpanel = assay: NCI-60 screen, subpanel; settings: Homo sapiens
# CCRF-CEM (Leukemia) = assay: NCI-60 screen (SRB, 48 h); settings: Homo sapiens
# K-562 (Leukemia) = assay: NCI-60 screen (SRB, 48 h); settings: Homo sapiens
# Colon Cancer subpanel = assay: NCI-60 screen, subpanel; settings: Homo sapiens
# BT-549 (Breast cancer) = assay: NCI-60 screen (SRB, 48 h); format: cell-based; settings: Homo sapiens
# HCT-15 (Colon cancer) = assay: NCI-60 screen (SRB, 48 h); settings: Homo sapiens
# [5] = system: panel of approximately 60 cancer cell lines; assay: NCI-60 screen (SRB, 48 h), full panel
# Melanoma subpanel = assay: NCI-60 screen, subpanel; settings: Homo sapiens
# Leukemia subpanel = assay: cells; settings: Homo sapiens
# U251 (CNS cancer) = assay: NCI-60 screen (SRB, 48 h); settings: Homo sapiens
# [6] = system: NCI-H322M (NSC lung cancer); assay: NCI-60 screen (SRB, 48 h); settings: Homo sapiens
# OVCAR-3 (Ovarian cancer) = assay: cells; settings: Homo sapiens
# RPMI-8226 (Leukemia) = assay: NCI-60 screen (SRB, 48 h); settings: Homo sapiens
# Breast cancer subpanel = assay: NCI-60 screen, subpanel; settings: Homo sapiens
# SK-MEL-2 (Melanoma) = assay: NCI-60 screen (SRB, 48 h); settings: Homo sapiens
# UACC-257 (Melanoma) = assay: NCI-60 screen (SRB, 48 h); settings: Homo sapiens
# HT29 (Colon cancer) = assay: NCI-60 screen (SRB, 48 h); settings: Homo sapiens
compound,measurement,setting,value
"CC1(C)CC[C@]23CC[C@]4(C)[C@H](CC[C@@H]5[C@@]6(C)CCCNC(C)(C)[C@@H]6CC[C@]54C)[C@H]2[C@H]1OC3 [Compound 7, Azepanoallobetulin]",GI50,SK-MEL-28 (Melanoma); SK-MEL-28,1.66 µM
same,IC (TGI),"SK-MEL-28 (Melanoma); SK-MEL-28, 48 h, read-out: TGI",3.18 µM
same,CC50,"SK-MEL-28 (Melanoma); SK-MEL-28, read-out: LC50",6.07 µM
same,GI50,[1]; NCI-H23,1.76 µM
same,IC (TGI),"[1]; NCI-H23, 48 h, read-out: TGI",3.5 µM
same,CC50,"[1]; NCI-H23, read-out: LC50",6.95 µM
same,IC (TGI),LOX IMVI (Melanoma); 48 h,3.08 µM
same,activity at 10 µM,"LOX IMVI (Melanoma); 48 h, 1 dose 10 µM, read-out: Growth % of the Most Sensitive Cell Lines",-94.9%
same,GI50,LOX IMVI (Melanoma); read-out: GI50,1.6 µM
same,GI50,[2],1.66 µM
same,IC (TGI),"[2]; 48 h, read-out: TGI",3.2 µM
same,CC50,[2]; read-out: LC50,6.17 µM
same,GI50,HS 578T (Breast cancer),1.96 µM
same,IC (TGI),"HS 578T (Breast cancer); 48 h, read-out: TGI",4.69 µM
same,CC50,HS 578T (Breast cancer); read-out: LC50,2.44 µM
same,GI50,IGROV1 (Ovarian cancer); IGROV-1,1.79 µM
same,IC (TGI),"IGROV1 (Ovarian cancer); IGROV-1, 48 h, read-out: TGI",3.48 µM
same,CC50,"IGROV1 (Ovarian cancer); IGROV-1, read-out: LC50",6.78 µM
same,GI50,UO-31 (Renal cancer); UO-31,1.56 µM
same,IC (TGI),"UO-31 (Renal cancer); UO-31, 48 h, read-out: TGI",3 µM
same,CC50,"UO-31 (Renal cancer); UO-31, read-out: LC50",5.77 µM
same,GI50,[3]; A549,1.81 µM
same,IC (TGI),"[3]; A549, 48 h, read-out: TGI",3.43 µM
same,CC50,"[3]; A549, read-out: LC50",6.5 µM
same,GI50,[4],1.78 µM
same,IC (TGI),"[4]; 48 h, read-out: TGI",3.59 µM
same,GI50,SN12C (Renal cancer),1.68 µM
same,IC (TGI),"SN12C (Renal cancer); 48 h, read-out: TGI",3.2 µM
same,CC50,SN12C (Renal cancer); read-out: LC50,6.1 µM
same,GI50,DU-145 (Prostate cancer); DU-145,1.74 µM
same,IC (TGI),"DU-145 (Prostate cancer); DU-145, 48 h, read-out: TGI",3.23 µM
same,CC50,"DU-145 (Prostate cancer); DU-145, read-out: LC50",6 µM
same,IC (TGI),"Prostate cancer subpanel; 48 h, read-out: TGI MG_MID",3.2 µM
same,GI50,Prostate cancer subpanel; read-out: GI50 MG_MID,1.67 µM
same,CC50,Prostate cancer subpanel; read-out: LC50 MG_MID,6.12 µM
same,GI50,CCRF-CEM (Leukemia),2.32 µM
same,IC (TGI),"CCRF-CEM (Leukemia); 48 h, read-out: TGI",6.73 µM
same,CC50,CCRF-CEM (Leukemia); read-out: LC50,> 100 µM
same,GI50,K-562 (Leukemia); K562,1.96 µM
same,IC (TGI),"K-562 (Leukemia); K562, 48 h, read-out: TGI",7 µM
same,CC50,"K-562 (Leukemia); K562, read-out: LC50",> 100 µM
same,IC (TGI),"Colon Cancer subpanel; 48 h, read-out: TGI MG_MID",3.11 µM
same,GI50,Colon Cancer subpanel; read-out: GI50 MG_MID,1.58 µM
same,CC50,Colon Cancer subpanel; read-out: LC50 MG_MID,6.11 µM
same,GI50,BT-549 (Breast cancer); BT-549,1.68 µM
same,IC (TGI),"BT-549 (Breast cancer); BT-549, 48 h",3.24 µM
same,GI50,HCT-15 (Colon cancer); HCT-15,1.31 µM
same,IC (TGI),"HCT-15 (Colon cancer); HCT-15, 48 h, read-out: TGI",2.68 µM
same,CC50,"HCT-15 (Colon cancer); HCT-15, read-out: LC50",5.47 µM
same,Positive Cytostatic Effect (cell lines with percent growth 0 to 50 / total),[5]; 1 dose 10 µM,16/59
same,Positive Cytotoxic Effect (cell lines with percent growth < 0 / total),[5]; 1 dose 10 µM,41/58
same,number of cancer cell lines the compound was active against,[5]; 1 dose 10 µM,52 cell lines
same,activity at 10 µM,"[5]; Homo sapiens, 48 h, read-out: Mean Growth, %",-27.3%
same,activity at 10 µM,"[5]; Homo sapiens, 48 h, read-out: Range of Growth, %",-99.4 to 76.4%
same,IC (TGI),"[5]; Homo sapiens, 48 h, read-out: TGI MG_MID60, average over all cell lines",3.64 µM
same,GI50,"[5]; Homo sapiens, read-out: GI50 MG_MID60",1.68 µM
same,GI50,"[5]; Homo sapiens, read-out: GI50 against all human tumor cell lines",< 3 µM
same,GI50,"[5]; Homo sapiens, read-out: GI50 against the most sensitive cell lines",0.2 to 0.94 µM
same,CC50,"[5]; Homo sapiens, read-out: LC50 MG_MID60, average over all cell lines",17.2 µM
same,IC (TGI),"Melanoma subpanel; 48 h, read-out: TGI MG_MID",3.37 µM
same,GI50,Melanoma subpanel; read-out: GI50 MG_MID,1.76 µM
same,CC50,Melanoma subpanel; read-out: LC50 MG_MID,6.52 µM
same,IC (TGI),"Leukemia subpanel; 48 h, read-out: TGI MG_MID",5.49 µM
same,GI50,Leukemia subpanel; read-out: GI50 MG_MID,1.96 µM
same,CC50,Leukemia subpanel; read-out: LC50 MG_MID,94.3 µM
same,GI50,U251 (CNS cancer); U-251,1.74 µM
same,IC (TGI),"U251 (CNS cancer); U-251, 48 h, read-out: TGI",3.23 µM
same,CC50,"U251 (CNS cancer); U-251, read-out: LC50",5.98 µM
same,GI50,[6],1.64 µM
same,IC (TGI),"[6]; 48 h, read-out: TGI",3.03 µM
same,CC50,[6]; read-out: LC50,5.6 µM
same,GI50,OVCAR-3 (Ovarian cancer); OVCAR-3,1.62 µM
same,IC (TGI),"OVCAR-3 (Ovarian cancer); OVCAR-3, 48 h, read-out: TGI",3.1 µM
same,CC50,"OVCAR-3 (Ovarian cancer); OVCAR-3, read-out: LC50",5.94 µM
same,GI50,RPMI-8226 (Leukemia); RPMI-8226,1.94 µM
same,IC (TGI),"RPMI-8226 (Leukemia); RPMI-8226, 48 h, read-out: TGI",4.58 µM
same,CC50,"RPMI-8226 (Leukemia); RPMI-8226, read-out: LC50",96.8 µM
same,IC (TGI),"Breast cancer subpanel; 48 h, read-out: TGI MG_MID",3.55 µM
same,GI50,Breast cancer subpanel; read-out: GI50 MG_MID,1.68 µM
same,CC50,Breast cancer subpanel; read-out: LC50 MG_MID,6.06 µM
same,GI50,SK-MEL-2 (Melanoma); SK-MEL-2,1.95 µM
same,IC (TGI),"SK-MEL-2 (Melanoma); SK-MEL-2, 48 h, read-out: TGI",4.09 µM
same,CC50,"SK-MEL-2 (Melanoma); SK-MEL-2, read-out: LC50",8.57 µM
same,GI50,UACC-257 (Melanoma); UACC-257,1.92 µM
same,IC (TGI),"UACC-257 (Melanoma); UACC-257, 48 h, read-out: TGI",3.89 µM
same,CC50,"UACC-257 (Melanoma); UACC-257, read-out: LC50",7.77 µM
same,GI50,HT29 (Colon cancer); HT-29,1.78 µM
same,IC (TGI),"HT29 (Colon cancer); HT-29, 48 h, read-out: TGI",3.63 µM
same,CC50,"HT29 (Colon cancer); HT-29, read-out: LC50",7.42 µM
